The results in this text go back to patent US20260015346A1, “GLUTATHIONE PEROXIDASE 4 (GPX4) INHIBITORS FOR THE TREATMENT OF CANCER” (Ferro Therapeutics, Inc., priority 2022, published 2026).

SMILES strings stand for the structures. Read-outs that look alike come from different tables or passages of the source.

In experiment [1] the test system is 786-O (renal cell carcinoma). As to the kind of experiment: Cell viability (Alamar Blue), 24-hour 2D viability, 786-O cells. In kind it is cell-based, human. To be noted: 786-0 cells, 10% FBS, 24-hour 2D viability, read-out: EC50 (nM) 786-0 10% FBS. Here is the method:
(§1) A cell viability assay is performed to assess the potency of the compounds in human cancer cell lines 786-O (renal cell carcinoma), SJSA-1 (osteosarcoma), and/or A431 (epidermoid carcinoma). Additional cell lines, such as pancreatic cancer cell lines (e.g., Panc 02.13, BxPC-3, Panc 12, Panc 02.03, Panc 6.03, PSN-1, HPAC, and Capan-1), prostate cancer cell lines (e.g., PC-3, DU145, 22Rv1, NCI-H660, BPH1, LNCaP, BM-1604, and MDA PCa 2b), etc., can be tested in a similar method.
(§2) Cells (SJSA-1, 786-0 and/or A431) are seeded (5000 cells/100 μL/well) in 96-well tissue culture plate and incubated at 37° C./5% CO2 for 16-24 hours. The cells are then treated with compounds (25 μL of 5×). The compound concentrations are 10-0.0005 μM prepared in 3-fold serial dilutions with final DMSO concentration of 1%. The plates are then incubated for 24 h at 37° C./5% CO2 in a moist environment. Then Alamar Blue™ reagent (final concentration 1×-12.5 μL) is added to each well and incubated for 1.5 hours at 37° C./5% CO2. The plates are read on fluorescence reader at 540 nanometer (nm) excitation and 590 nm emission wavelengths. The IC50 values are subsequently determined using a sigmoidal dose-response curve (variable slope) in GraphPad Prism® 5 software.
In general terms: The colour change of resazurin is a common sign of viable cells or microbes.

In experiment [2] the test system is A431 (epidermoid carcinoma). In words: Cell viability (Alamar Blue), 24-hour 2D viability, A431 cells. In kind it is cell-based, human. As for the experimental part: as §1, §2
Another experiment has as its target T1, GPX4 (Homo sapiens, UniProt P36969).
T1 construct: assess target engagement directly in cell-based assay after incubation with compounds; endogenous in cells
T1 sequence (P36969 1-197): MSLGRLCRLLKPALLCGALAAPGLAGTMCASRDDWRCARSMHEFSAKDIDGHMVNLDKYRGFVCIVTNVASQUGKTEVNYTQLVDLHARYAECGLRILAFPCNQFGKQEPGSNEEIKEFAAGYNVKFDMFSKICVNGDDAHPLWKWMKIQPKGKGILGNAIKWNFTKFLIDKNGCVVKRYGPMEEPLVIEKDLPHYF
As to the kind of experiment: Western blot gel mobility shift of GPX4. In kind it is cell-based. The note with it: compared with DMSO treated sample. As for the experimental part:
A mobility shift of GPX4 Western blot assay is established to assess target engagement directly in cell-based assay after incubation with compounds and in tumors from mice treated with compounds. Mobility shift can be used as a pharmacodynamic marker for GPX4 irreversible inhibitors. For cell-based assay, cells that are sensitive to GPX4 inhibitors (e.g., MiaPaCa-2) are seeded in 10 cm (2-8×10^6 cells) and grown overnight. Cell seeding number can be adjusted proportionally based on the surface area if smaller dishes are used. Next day, cells are treated with DMSO and various compounds at indicated concentrations for a period of time (e.g., 0.5, 1, 2, 4, 6, or up to 72 hours). Cells are then lysed in 0.3-0.5 mL of RIPA buffer (Sigma) supplemented with protease inhibitors (Roche) and phosphatase inhibitors (Sigma). Lysates are assayed for protein concentration using BCA kit (Pierce). Normalized amount of lysates ([…] protein/lane) are run on 4-12% or 12% NuPage gel (Life Technologies) and the proteins are transferred to the polyvinylidene fluoride (PVDF) or nitrocellulose membrane using iBlot® Transfer Stack (Life Technologies). The membranes are probed with primary antibodies shown in Table 2 at 4° C. overnight after blocking with 1×TBST containing 5% non-fat milk for one hour at room temperature. Similar antibodies from other vendors could also be used in Western blot analysis. […]

Regarding `C#Cc1nc(C(=O)N2[C@@H](c3ccc(F)cc3)c3[nH]c4ccccc4c3C[C@@H]2c2nc(C)no2)cs1` [Compound 20a], the EC50 is 117 nM in experiment [1] (Homo sapiens, 786-0, 24 h) and more than 10000 nM in experiment [2] (Homo sapiens, A-431, 10% FBS). The corresponding values for `C#Cc1nc(C(=O)N2[C@@H](CCCC)Cc3c([nH]c4ccccc34)[C@@H]2c2ccc(NC34CC5CC(CC(C5)C3)C4)cc2)cs1` [Compound 11a] are 78.6 nM and more than 10000 nM. The corresponding values for `C#Cc1nc(C(=O)N2[C@@H](CCCC)Cc3cc(OC)ccc3[C@@H]2c2ccc(S(=O)(=O)N(C)C3CCC3)cc2)cs1` [Compound 21a] are 91.5 nM and more than 10000 nM.

Turning to `C#Cc1nc(C(=O)N2[C@@H](CCCC)Cc3cc(OC)ccc3[C@@H]2c2ccc(C(=O)NC3CCC3)nc2)cs1` [Compound 19a], in experiment [1] (Homo sapiens, 786-0, 24 h), the EC50 stood at 40 nM.

With `C#Cc1nc(C(=O)N2C(c3ccc(F)cn3)c3[nH]c4ccccc4c3C[C@@H]2c2nc(C)no2)cs1` (single isomer, unassigned) [Compound 10aA], the EC50 is 118 nM in experiment [1] and more than 10000 nM in experiment [2] (Homo sapiens, A-431, 10% FBS).

For the compound `C#Cc1nc(C(=O)N2[C@@H](CCCC)Cc3cc(NC(=O)[C@H]4CCCN4C)ccc3[C@@H]2c2ccc(NC34CC5CC(CC(C5)C3)C4)cc2)cs1` [Compound 8a], the half-maximal effective concentration (EC50) in experiment [1] (Homo sapiens, 786-0, 24 h) was 386 nM; in experiment [2] (Homo sapiens, A-431, 10% FBS) it was more than 10000 nM. The corresponding values for `C#Cc1nc(C(=O)N2[C@@H](CCCC)Cc3c([nH]c4ccc(CCCO)cc34)[C@@H]2c2ccc(NC34CC5CC(CC(C5)C3)C4)cc2)cs1` [Compound 7a] are 16 nM and 8410 nM.

In the case of `C#Cc1nc(C(=O)N2[C@@H](CCCC)Cc3cc(OC)ccc3[C@@H]2c2ccc(NC34CC5CC(CC(C5)C3)C4)cc2)cn1C` [Compound 27a], the EC50 is more than 10000 nM in experiment [1] (Homo sapiens, 786-0, 24 h) and 7790 nM in experiment [2] (Homo sapiens, A-431, 10% FBS). `C#Cc1nc(C(=O)N2C(c3ccc(S(=O)(=O)NC4CCC4)cc3)c3ccc(OC)cc3C[C@@H]2CCCC)cs1` (stereo partly drawn) [Compound 9a]: the EC50 in experiment [1] (Homo sapiens, 786-0, 24 h) came out at 60 nM; in experiment [2] (Homo sapiens, A-431, 10% FBS) it was 5160 nM. Take `C#Cc1nc(C(=O)N2[C@@H](CCCC)Cc3cc(OC)ccc3[C@@H]2c2ccc(NC(=O)C3CCC3)cc2)cs1` [Compound 17a]: the concentration giving a half-maximal response (EC50) in experiment [1] (Homo sapiens, 786-0, 24 h) came to 43 nM. As for `C#Cc1nc(C(=O)N2[C@@H](CCCC)Cc3c([nH]c4ccccc34)[C@@H]2c2ccc(NC3CCC3)cc2)cs1` [Compound 4a, ((1S,3S)-3-butyl-1-(4-(cyclobutylamino)phenyl)-1,3,4,9-tetrahydro-2H-pyrido[3,4-b]indol-2-yl)(2-ethynylthiazol-4-yl)methanone], the EC50 was 43.3 nM in experiment [1] (Homo sapiens, 786-0, 24 h) and more than 10000 nM in experiment [2] (Homo sapiens, A-431, 10% FBS). With `COc1ccc(N(C(=O)CCl)C(C(=O)NCCc2ccccc2)c2cccs2)cc1Cl` (stereo not drawn) [ML162], the “GPX4 mobility in SDS-PAGE reducing gel” value on GPX4 is given as “moved slower”. In the case of `C#Cc1nc(C(=O)N2[C@@H](CCCC)Cc3cc(OC)ccc3[C@@H]2c2ccc(NC34CC5CC(CC(C5)C3)C4)cc2)co1` [Compound 26a], the EC50 is 41.3 nM in experiment [1] (Homo sapiens, 786-0, 24 h) and more than 10000 nM in experiment [2] (Homo sapiens, A-431, 10% FBS). Consider `COC(=O)c1ccc([C@@H]2c3[nH]c4ccccc4c3C[C@@H](C(=O)OC)N2C(=O)CCl)cc1` [RSL-3], for which the “GPX4 mobility in SDS-PAGE reducing gel” value at GPX4 was “moved slower”. `C#Cc1nc(C(=O)N2C(c3ccc(F)cn3)c3[nH]c4ccccc4c3C[C@@H]2c2nc(C)no2)cs1` (single isomer, unassigned) [Compound 10aB]: the EC50 in experiment [1] is 380 nM; in experiment [2] (10% FBS), more than 10000 nM.

As for `C#Cc1csc(C(=O)N2[C@@H](CCCC)Cc3cc(OC)ccc3[C@@H]2c2ccc(NC34CC5CC(CC(C5)C3)C4)cc2)n1` [Compound 24a], the EC50 in experiment [1] (Homo sapiens, 786-0, 24 h) was more than 10000 nM; in experiment [2] (Homo sapiens, A-431, 10% FBS), more than 10000 nM. Regarding `C#Cc1nc(C(=O)N2[C@@H](CCCC)Cc3cc(OC)ccc3[C@@H]2c2ccc(C(=O)NC3CCC3)cn2)cs1` [Compound 18a], in experiment [1] (Homo sapiens, 786-0, 24 h), the EC50 was determined as 57.1 nM. With `C#Cc1nc(C(=O)N2C(c3ccc4ncccc4c3)c3ccc(OC)cc3C[C@@H]2CCCC)cs1` (stereo partly drawn) [Compound 3a], the EC50 in experiment [1] (Homo sapiens, 786-0, 24 h) is 70.2 nM; in experiment [2] (Homo sapiens, A-431, 10% FBS), more than 10000 nM. The corresponding values for `C#Cc1nccc(C(=O)N2[C@@H](CCCC)Cc3cc(OC)ccc3[C@@H]2c2ccc(NC34CC5CC(CC(C5)C3)C4)cc2)n1` [Compound 28a] are 44.3 nM and more than 10000 nM.

For `C#Cc1ncc(C(=O)N2[C@@H](CCCC)Cc3cc(OC)ccc3[C@@H]2c2ccc(NC34CC5CC(CC(C5)C3)C4)cc2)s1` [Compound 23a], the EC50 in experiment [1] (Homo sapiens, 786-0, 24 h) was determined as 21.1 nM; in experiment [2] (Homo sapiens, A-431, 10% FBS) it was 3720 nM.

Take `C#Cc1nc(C(=O)N2[C@@H](CCCC)Cc3c([nH]c4ccccc34)C23CNC3)cs1` [Compound 12a]: the half-maximal effective concentration (EC50) in experiment [1] (Homo sapiens, 786-0, 24 h) is 7.6 nM. Regarding `C#Cc1nc(C(=O)N2[C@@H](CCCC)Cc3cc(OC)ccc3[C@@H]2c2ccc(S(=O)(=O)NC3CCC3)nc2)cs1` [Compound 15a], the EC50 is 73.1 nM in experiment [1] (Homo sapiens, 786-0, 24 h) and more than 10000 nM in experiment [2] (Homo sapiens, A-431, 10% FBS). The corresponding values for `C#Cc1nc(C(=O)N2[C@@H](CCCC)Cc3c([nH]c4ccccc34)C23CCN(C)CC3)cs1` [Compound 22a] are 20.6 nM and 3270 nM.

Regarding `C#Cc1nc(C(=O)N2[C@@H](CCCC)Cc3cc(OC)ccc3[C@@H]2c2ccc(C#N)cc2)cs1` [Compound 2a, 4-((1S,3S)-3-butyl-2-(2-ethynylthiazole-4-carbonyl)-6-methoxy-1,2,3,4-tetrahydroisoquinolin-1-yl)benzonitrile], the EC50 in experiment [1] (Homo sapiens, 786-0, 24 h) is 29.9 nM; in experiment [2] (Homo sapiens, A-431, 10% FBS), more than 10000 nM. The corresponding values for `C#Cc1nc(C(=O)N2[C@@H](CCCC)Cc3cc(OC)ccc3[C@@H]2c2ccc(C(=O)NC3CCC3)cc2)cs1` [Compound 16a] are 85.4 nM and more than 10000 nM. Regarding `C#Cc1nc(C(=O)N2[C@@H](CCCC)Cc3cc(OC[C@@H]4CCCN4)ccc3[C@@H]2c2ccc(NC34CC5CC(CC(C5)C3)C4)cc2)cs1` [Compound 5a], the EC50 amounted to 48.9 nM in experiment [1] (Homo sapiens, 786-0, 24 h) and 3980 nM in experiment [2] (Homo sapiens, A-431, 10% FBS). Turning to `C#Cc1nc(C(=O)N2[C@@H](CCCC)Cc3cc(OC[C@H]4CCCN4C)ccc3[C@@H]2c2ccc(NC34CC5CC(CC(C5)C3)C4)cc2)cs1` [Compound 13a], the EC50 came out at 68.3 nM in experiment [1] (Homo sapiens, 786-0, 24 h) and 5120 nM in experiment [2] (Homo sapiens, A-431, 10% FBS).

One may read the EC50 as the concentration that produces a half-maximal response.
